Assay results: doi:10.1101/2025.04.10.648262, “Time-resolved phenotyping at subcellular resolution reveals shared principles and key trade-offs across antimicrobial peptide activities” (bioRxiv, 2026)
Bridge positions count the residues as written; N and C are the ends. Square brackets hold non-standard residues; d marks the D form. Peptide text beside a SMILES is read from it. Nspe = C[C@H](NCC(=O)O)c1ccccc1; Nlys = NCCCCNCC(=O)O

System: CJW7753 cells in wide trenches
Test: Wide-trench microfluidics, growth inhibition of dense populations
Format: cell-based, Escherichia coli
Details: 2X MIC in feeding channel, 37°C, M9gluCAAT with 0.08% Pluronic
Source text: The design of the wide-trench microfluidics was adapted from the one reported by ([Lambert & Kussell, 2014]). As reported before ([Lin & Jacobs-Wagner, 2022]), the master mold was manufactured in the clean room of the School of Engineering and Applied Science at Yale University. UV photolithography (EVG 620 Mask Aligner) was applied on Si wafers with SU-8 photoresist to generate two layers of positive patterns. The lower layer contained the bacterial culture chambers (wide trenches) while the upper layer contained the large trench for the flowing culture medium. The large feeding region features a ~200 μm width and ~30 μm height. The wide trenches have a width of 7 μm, a depth of ~34–38 μm, and a height of 1.29 μm.
A solution of 9:1 polydimethylsiloxane (PDMS) and curing agent was mixed, degassed to remove air bubbles, poured onto the silicon wafer, and cured at 64.5°C for > 3 h. Note that the 9:1 PDMS:curing agent ratio was used instead of the standard 10:1 to reduce the hydrophobicity of the PDMS and mitigate hydrophobic interactions with AMPs. Once hardened, PDMS chips were cut out from the wafer, and a 1.2 mm biopsy punch was used to create inlet and outlet holes. The current chip design features two independent channels per chip. To allow for a higher temperature during PDMS-glass bonding, the glass bottom part of the dish was used during the following steps (without the plastic support glued to it). […]
To analyse wide-trench time-lapse images, drift correction was first performed using OmniSegger, followed by a custom Python script (drift_correction_wide_trenches.py) to correct for the slow residual drift that remained after the first correction step. The resulting drift-corrected timelapse data were analysed with the OmniSegger pipeline using the ribosome-fluorescence wide-trench Omnipose model described above, allowing cell segmentation and cell linking to be performed in the same general manner as for the PDMS-microwell experiments. […]

| Compound | Growth inhibition of dense cell population in wide trenches |
| --- | --- |
| CC[C@@H](C)[C@@H](NC(=O)[C@@H](C)NC(=O)[C@@H](CCCNC(=N)N)NC(=O)[C@@H](Cc1c[nH]c2ccccc12)NC(=O)[C@@H](CCC(N)=O)NC(=O)[C@H](N)C(C)C)C(=O)N[C@H](CCCNC(=N)N)C(=O)N[C@@H](C(=O)N[C@H](CCCNC(=N)N)C(=O)N[C@@H](C(=O)N[C@@H](C(=O)N[C@H](CCCNC(=N)N)C(N)=O)[C@H](C)CC)C(C)C)C(C)C [DJK-5] (H-[dV][dQ][dW][dR][dA][dI][dR][dV][dR][dV][dI][dR]-NH2; N-terminus and C-terminus assumed) | able to inhibit cell growth throughout the entire wide trenches |
| CC[C@H](C)[C@@H]1NC(=O)CNC(=O)[C@H](CCCNC(=N)N)NC(=O)[C@H](Cc2ccc(O)cc2)NC(=O)[C@@H]2CSSC[C@H](NC1=O)C(=O)N[C@@H](Cc1ccc(O)cc1)C(=O)N[C@@H](CCCNC(=N)N)C(=O)N[C@@H](CCCNC(=N)N)C(=O)N[C@H](C(=O)N[C@@H](CCCNC(=N)N)C(N)=O)CSSC[C@H](NC(=O)[C@H](Cc1c[nH]c3ccccc13)NC(=O)[C@@H](N)CCCCN)C(=O)N[C@@H](Cc1ccccc1)C(=O)N[C@@H](CCCNC(=N)N)C(=O)N[C@@H](C(C)C)C(=O)N2 [Tac1, tachyplesin-1] (H-KWCFRVCYRGICYRRCR-NH2; disulfide 3-16, 7-12 (inferred); N-terminus assumed) | primarily inhibited the growth of cells near the top of the trenches |
| C[C@@H](c1ccccc1)N(CC(N)=O)C(=O)CN(C(=O)CN(CCCCN)C(=O)CN(C(=O)CN(C(=O)CN(CCCCN)C(=O)CN(C(=O)CN(C(=O)CN(CCCCN)C(=O)CN(C(=O)CN(C(=O)CNCCCCN)[C@@H](C)c1ccccc1)[C@@H](C)c1ccccc1)[C@@H](C)c1ccccc1)[C@@H](C)c1ccccc1)[C@@H](C)c1ccccc1)[C@@H](C)c1ccccc1)[C@@H](C)c1ccccc1 [TM1] (H-[Nlys][Nspe][Nspe][Nlys][Nspe][Nspe][Nlys][Nspe][Nspe][Nlys][Nspe][Nspe]-NH2) | localized growth inhibition |
